Results on 22 compounds are retold here after US6869974B1, “Pharmaceutical compounds” (Nicox S.A., priority 1999, dated 2005).

“Also recorded” adds a separate entry of the source.

Series [1] has as its system Human endothelial cells of the umbilical vein. As to the kind of experiment: Test 2 (CIP): apoptosis (DNA fragmentation) induced by cumene hydroperoxide in endothelial cells. Type of series: cell-based. The following applies: for activity at 100 µM: Homo sapiens, Endothelial cell, 1 h, read-out: Apoptosis % with respect to the controls treated only with CIP; for inhibition of apoptosis induced by CIP (in words, significance p<0.01): CIP 5 mM. The method, then:
Test 2 (CIP): Protection parameter of endothelial cell against the oxidative stress induced by cumene hydroperoxide (CIP).
Human endothelial cells of the umbilical vein are prepared according to an usual standard procedure. Fresh umbilical veins are filled with a 0.1% by weight collagenase solution and incubated at 37° C. for 5 minutes.
The cells are collected from the perfusate by centrifugation and harvested in culture flasks T-75, pretreated with human fibronectin. The cells are then harvested in the same medium, further added with 10 ng/ml of bovine hypothalamic growth factor. When the cells of the primary cell culture (i.e. that directly obtained from ex-vivo) form a single layer of confluent cells (about 8,000,000 cells/flask), the culture is stopped and the layers washed and trypsinized. The cellular suspensions are transferred into the wells of a cell culture plate having 24 wells, half of which is then additioned with the same culture medium containing the drug at a 10^−4M concentration, and harvested in a thermostat at 37° C. at a constant moisture. Only the cells coming from said first sub-cultures are used for the experiments with cumene hydroperoxide (CIP).
Before starting the test, the cellular culture medium is removed and the cellular layers are carefully washed with a physiologic solution at a temperature of 37° C. The wells of the culture plate are then incubated for one hour with CIP at a 5 mM concentration in the culture medium. […] 5 replicates for each sample are carried out.
Human endothelial cells of the umbilical vein are prepared according to a standard method. Fresh umbilical veins are filled with a collagenase solution 0.1% by weight and incubated at 37° C. for 5 minutes.
The cells are collected from the perfusate by centrifugation at 800 rpm and harvested in culture flasks T-75, pretreated with human fibronectin. Cells are then harvested in the same medium, added with bovine hypothalamic growth factor (100 ng/ml). When the cells of the primary cell culture (the cells directly removed from ex-vivo umbilical vein) form a single layer of confluent cells (abdut 8,000,000 cells/flask), harvesting is stopped and the layers are washed and trypsinized. The cellular suspensions are transferred into wells of a culture plate having 24 wells, half of said wells being added with the same culture medium containing the drug at a 10^−4M concentration, and harvested in a thermostat at 37° C. at a constant moisture (90%), CO2=5%. When the drug is not soluble in the culture medium, it is formerly dissolved in a small amount of di-methylsulphoxide. The maximum amount of dimethylsulphoxide which can be added to the culture medium is 0.5%. Only the cells coming from these first subcultures are used for the tests with cumene hydroperoxide (CIP).
Before starting the test, the cellular culture medium is removed and the cellular layers are carefully washed with a standard physiologic solution buffered with phosphate 0.1 M pH 7.0, at the temperature of 37° C. The content of each well is then incubated for one hour with a CIP suspension in the culture medium at a 5 mM concentration. Evaluation of the cellular damage (apoptosis) is carried out by determining the percent variation of the DNA fragmentation in the cultures containing the drug+CIP with respect to the controls treated with CIP only. […] The fluorescence of each sample was determined on 5 replicates. Statistic evaluation has been made with t Student test (p<0.01).

Series [2] can be described thus: Test 4: inhibition of radical production from DPPH. The settings on record: 100 μM (10^-4 M) in methanol, 30 minutes, absorbance 517 nm. How it is done: Test 4 is a […] test which affords to establish whether the precursor of B or B1 (precursor of the X2 or X2a of the formulas (I) and (II) respectively), inhibits the production of radicals from DPPH (2,2-diphenyl-1-picryl-hydrazyl) (M. S. Nenseter et Al., Atheroscler. Thromb. 15, 1338-1344, 1995). 100 μM solutions in methanol of the tested substances are prepared, and an aliquot of each of said solutions is added to a DPPH solution in methanol […]. After having stored the solutions at room temperature away from light for 30 minutes, their absorbances are read at the wave length of 517 nm, together with that of the corresponding DPPH solution at the same concentration. The absorbance decrease with respect to that of the solution of DPPH at the same concentration of the test solutions is determined. The effectiveness of the tested compound in inhibiting formation of radicals by DPPH is expressed by the following formula: (1−AS/AC)X100 wherein AS and AC are respectively the absorbance values of the solution containing the test compound together with DPPH and of the solution containing only DPPH.
The B or B1 precursor satisfies test 4 if their effectiveness in inhibiting radical production as above defined, is equal to or higher than 50% at the indicated concentration (10^−4 M).
Test 4: inhibition of the radical production from DPPH of some substances to be used as precursors of B or B1 (ref. Formulas I and II of the invention)
The method is based on a colorimetric test in which DPPH (2,2-diphenyl-1-picryl-hydrazyl) is used as the compound-forming radicals (M. S. Nenseter et Al., Atheroscler. Thromb. 15, 1338-1344, 1995).
Solutions in methanol of the tested substances at a final concentration 100 μM are initially prepared. 0.1 ml of each of these solutions are added to aliquots of 1 ml of a methanol solution 0.1 M of DPPH and then the final volume is brought to 1.5 ml. After having stored the solutions at room temperature away from light for 30 minutes, the absorbance at the wave length of 517 nm is read. It is determined the absorbance decrease with respect to the absorbance of a solution containing the same concentration of DPPH.
The efficacy of the test compound to inhibit the production of radicals, or antiradical activity, is expressed by the following formula: (1−AS/AC)X100 wherein AS and AC are, respectively, the absorbance values of the solution containing the test compound together+DPPH and of the solution containing only DPPH.
The compound meets test 4 if radical production inhibition, as above defined, is equal to or higher than 50%.

The nature of the next series: in vivo. The following applies: rat, in vivo. The method, then: (§1) The animals (rats) are distributed in the following groups (no. 10 animals for group):
(§2) • 1° group: treatment: only carrier (aqueous suspension 1% w/v of carboxyymethylcellulose, dose: 5 ml/Kg when the drug is administered by os, or a physiologic solution when parenterally administered, i.e. by subcutaneous, intraperitoneal, ir-ravenous or intermuscular route), • 2° group: treatment: carrier as above defined+NEM, B) Groups treated with the drug: • group I: treatment: carrier+drug, • gruppo II: treatment: carrier+drug+NEM.
(§3) The administration routes are those known for the drug, and can be the oral or subcutaneous, intraperitoneal, intravenous or intramuscular route.
(§4) The animals are sacrificed after 24 hours and then one proceeds to the evaluation of the damage to the gastrointestinal mucosa.
(§5) Test 1—experimental model in vivo with N-ethylmaleimide (NEM): study of the gastric tolerability of some drugs screened as precursors of the compounds of the invention.
(§6) The animals (rats, weight about 200 g) are distributed in the following groups (No. 10 animals for group):
(§7) • 1° group: treatment: only carrier (aqueous suspension 1% w/v of carboxymethylcellulose, dose: 5 ml/Kg when the drug is administered by os, physiologic solution when by parenteral route), • 20 group: treatment: carrier+NEM, B) Groups administered with each drug: • group I: treatment: carrier+drug, • group II: treatment: carrier+drug+NEM.
(§8) The drug is administered one hour later, in suspension in the carrier. Animals are sacrificed after 24 hours and evaluation of the damage to the gastrointestinal mucosa is made by counting the number of rats, inside each group, with lesions to the stomach at a visual inspection. The total number of said rats is then divided by the total number of rats of the group and multiplied by 100.

The test system of series [3] is rats not treated or treated with NEM. The series can be described thus: in vivo. The following applies: rats not treated with NEM; single dose; route given with each value (p.o., i.c., s.c.). The method, then: as §1, §2, §3, §4, §5, §6, §7, §8
Setting [4] is: Table II, drug 10^-4 M, CIP 5 mM for one hour, DNA fragmentation.

For `CC(=O)Nc1ccc(O)cc1` [Paracetamol, paracetamol], the activity at 100 µM in series [1] (setting [4]) was determined as 120%. Further, the “inhibition of apoptosis induced by CIP (in words, significance p<0.01)” value (“inhibition … (in words, significance p<0.01)” below) in series [1] (drug 10^-4 M) is “do not significantly inhibit apoptosis; also recorded: not significantly different with respect to that of the controls”.

Turning to `CC(=O)N[C@H](CS)C(=O)O` [N-acetylcisteine], in series [2] (listed as N-acetylcysteine, 100 µM), the “% inhibition radicals from DPPH” value is on record as 100%.

In the case of `COc1cc(/C=C/C(=O)O)ccc1O` [Ferulic acid, ferulic acid], the “% inhibition radicals from DPPH” value in series [2] (100 µM) is on record as 100%.

For `CCC(C)(C)C(=O)O[C@H]1C[C@@H](C)C=C2C=C[C@H](C)C(CCC3CC(O)CC(=O)O3)[C@H]21` (stereo partly shown) [Simvastatine, simvastatine], the activity at 100 µM in series [1] (setting [4]) worked out at 72%.

Turning to `CCCCC(C)(O)C/C=C/[C@H]1[C@H](O)CC(=O)[C@@H]1CCCCCCC(=O)OC` (mixture of isomers) [Misoprostol, misoprostol], in “in vivo”, the MTD at 24 h worked out at 0.5 mg/kg.

As to `Nc1c(Br)cc(Br)cc1CN[C@H]1CC[C@H](O)CC1` [Ambroxol, ambroxol], in series [1] (drug 10^-4 M), the “inhibition … (in words, significance p<0.01)” value is given as “inhibit apoptosis”.

Turning to aciclovir, the “Apoptosis % with respect to the controls treated only with CIP” value (“Apoptosis %” below) in series [1] (setting [4]) stood at 95%. Further, in series [1] (drug 10^-4 M), the “inhibition … (in words, significance p<0.01)” value is reported as “do not significantly inhibit apoptosis”.

With `Nc1ccc(O)c(C(=O)O)c1` [Mesalamine, mesalamine], the MTD at 24 h in the series “in vivo” came to 750 mg/kg. In addition, in series [1] (setting [4]), the activity at 100 µM is 74%. Also, the “inhibition … (in words, significance p<0.01)” value in series [1] (drug 10^-4 M) was “inhibit apoptosis; also recorded: inhibits the apoptosis induced by CIP”.

With enalapril, the “inhibition … (in words, significance p<0.01)” value in series [1] (drug 10^-4 M) was “do not significantly inhibit apoptosis”.

On to clopidogrel, for which the “Apoptosis %” value in series [1] (setting [4]) is reported as 110%. Besides, in series [1] (drug 10^-4 M), the “inhibition … (in words, significance p<0.01)” value is reported as “do not significantly inhibit apoptosis”.

Turning to `NC(=O)c1cccnc1` [Nicotinamide, nicotinamide], the activity at 100 µM in series [1] (setting [4]) was 98%. Also, in series [1] (drug 10^-4 M), the “inhibition … (in words, significance p<0.01)” value is given as “do not significantly inhibit apoptosis”.

Regarding `COc1ccc2c(c1)c(CC(=O)O)c(C)n2C(=O)c1ccc(Cl)cc1` [Indomethacin, indomethacin], the “maximum tolerated dose (dose (mg/Kg)/admin. route)” value (“maximum tolerated dose” for short) in series [3] came out at 7.5 mg/kg. Also, the activity at 100 µM in series [1] (setting [4]) came out at 95%. The “Apoptosis %” value in series [1] (Table III, second apoptosis experiment (Example F6), CIP-induced DNA fragmentation) was 95%. For the same compound, the “inhibition … (in words, significance p<0.01)” value in series [1] (drug 10^-4 M) is recorded as “not significantly different with respect to that of the controls”; in series [1] (drug 10^-4 M, listed as indomethacin), “do not significantly inhibit apoptosis”.

Turning to `CC1(C)S[C@@H]2[C@H](NC(=O)[C@H](N)c3ccccc3)C(=O)N2[C@H]1C(=O)O` [Ampicilline, ampicilline], the “inhibition … (in words, significance p<0.01)” value in series [1] (drug 10^-4 M) was “do not significantly inhibit apoptosis”.

For `N[C@@H](CS)C(=O)O` [Cisteine, cisteine], the “% inhibition radicals from DPPH” value in series [2] (100 µM) stood at 100%.

Turning to `Nc1c2c(nc3ccccc13)CCCC2` [Tacrine, tacrine], the “maximum tolerated dose” value in series [3] was 1/s.c. mg/Kg. In addition, the activity at 100 µM in series [1] (setting [4]) was 90%. Also, the “inhibition … (in words, significance p<0.01)” value in series [1] (drug 10^-4 M) is listed as “do not significantly inhibit apoptosis”.

cetirizine: the “Apoptosis %” value in series [1] (setting [4]) is listed as 115%. Moreover, the “inhibition … (in words, significance p<0.01)” value in series [1] (drug 10^-4 M) is listed as “do not significantly inhibit apoptosis”.

Turning to `CC(C)(S)[C@@H](N)C(=O)O` [Penicillamine, penicillamine], the “% inhibition radicals from DPPH” value in series [2] came to 100%.

Regarding `Cn1c(=O)c2c(ncn2CC(O)CO)n(C)c1=O` (stereo not shown) [Diphylline, diphylline], the activity at 100 µM in series [1] (setting [4]) is 95%. In series [1] (drug 10^-4 M), the “inhibition … (in words, significance p<0.01)” value is listed as “do not significantly inhibit apoptosis”.

Turning to `O=C(O)c1cc(O)ccc1O` [Gentisic acid, gentisic acid], the “% inhibition radicals from DPPH” value in series [2] (100 µM) is 80%.

For `CC(C)(C)NCC(O)c1ccc(O)c(CO)c1` (stereo not shown) [Salbutamol, salbutamol], the activity at 100 µM in series [1] (setting [4]) is 90%. Besides, the “inhibition … (in words, significance p<0.01)” value in series [1] (drug 10^-4 M) is on record as “do not significantly inhibit apoptosis”.

As to `NCCCC(O)(P(=O)(O)O)P(=O)(O)O` [Alendronate, sodic alendronate], the activity at 100 µM in series [1] (setting [4]) turned out to be 160%. Further, in series [1] (drug 10^-4 M), the “inhibition … (in words, significance p<0.01)” value is “do not significantly inhibit apoptosis”.

Consider `COc1ccc2[nH]c([S+]([O-])Cc3ncc(C)c(OC)c3C)nc2c1` (stereo not shown) [Omeprazol, omeprazol], for which the “maximum tolerated dose” value in series [3] is on record as 30/s.c. mg/Kg. Besides, in series [1] (setting [4]), the activity at 100 µM was determined as 90%. Further, in series [1] (drug 10^-4 M), the “inhibition … (in words, significance p<0.01)” value was “do not significantly inhibit apoptosis”.
